Data set [1] has as its system bleomycin-induced pulmonary fibrosis. Nature of the data set: Bleomycin-induced pulmonary fibrosis mouse model, intranasal Tegavivint. It is filed as in vivo, C57BL/6 wild-type mice. The conditions noted are these: 5 mg/kg biw intranasal. As to the method: In another pilot study, Tegavivint at 5 mg/kg was administered biw (twice a week) via intranasal delivery to C57BL/6 wild-type mice. Bleomycin was administered to the mice intratracheally on day 0 to induce pulmonary fibrosis, and Tegavivint or the vehicle (5% dextrose in water) was administered on days 6, 10, 14, 18 and 21. The purpose of this experiment was to evaluate the effect of topically-administered Tegavivint on bleomycin-induced pulmonary fibrosis in vivo.

The test system of data set [2] is DD180 cells. Description: Fibroblast populated collagen lattice (FPCL) contraction assay. As to conditions: ≤25 pM. It is filed as cell-based, human. Here is the method: (§1) Tegavivint (BC-2059) powder was reconstituted it in 100% dimethyl sulfoxide (DMSO) to a 10_mM stock solution. The stock was diluted to 100 nM in serum-free media (α minimal essential medium, αMEM), and further diluted to 100 pM in serum-free αMEM immediately before the analyses were performed. Serial dilutions from 100 pM down to 0.78 pM were assessed in various assays. 0.001% DMSO in αMEM was used as the vehicle control, and αMEM alone was used as an untreated control, in a subset of analyses.
Fibroblast populated collagen lattice assays were performed on primary palmar fascia fibroblasts derived from the fibrotic palmar fascia of one patient with Dupuytren's disease (DD180) using the protocol described in Raykha, C., Crawford, J., Gan, B. S., Fu, P., Bach, L. A., and O'Gorman, D. B. (2013) IGF-II and IGFBP-6 regulate cellular contractility and proliferation in Dupuytren's disease. Biochimica et biophysica acta. 1832, 1511-9.

Data set [3] addresses T1, TBL1 (Homo sapiens, UniProt O60907).
T1 sequence (O60907 1-577): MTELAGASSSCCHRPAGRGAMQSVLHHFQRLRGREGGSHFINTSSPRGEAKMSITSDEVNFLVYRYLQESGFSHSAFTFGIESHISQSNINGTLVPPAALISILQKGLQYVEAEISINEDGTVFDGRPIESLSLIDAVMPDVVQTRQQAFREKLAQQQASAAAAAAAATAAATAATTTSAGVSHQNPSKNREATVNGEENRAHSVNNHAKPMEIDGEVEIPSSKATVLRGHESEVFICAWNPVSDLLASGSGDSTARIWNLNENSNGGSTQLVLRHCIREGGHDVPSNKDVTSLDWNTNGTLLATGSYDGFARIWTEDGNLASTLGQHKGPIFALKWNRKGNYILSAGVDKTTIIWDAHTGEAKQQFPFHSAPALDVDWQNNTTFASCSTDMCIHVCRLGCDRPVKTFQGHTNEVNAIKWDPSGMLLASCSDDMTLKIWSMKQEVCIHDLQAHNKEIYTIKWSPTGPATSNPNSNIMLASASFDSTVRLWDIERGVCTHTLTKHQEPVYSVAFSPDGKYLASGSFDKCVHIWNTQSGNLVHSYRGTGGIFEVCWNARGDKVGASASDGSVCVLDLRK
As to conditions: background statement, no method given; cited from earlier work.

The subject of data set [4] is cell lines derived from chromic myeloid leukemia (CML) patients and cell lines and primary cells derived from myeloproliferative neoplasm (MPN) patients. As to conditions: background statement; cited from earlier work.
The subject of data set [5] is bleomycin-induced pulmonary fibrosis. Nature of the data set: Bleomycin-induced pulmonary fibrosis mouse model, intravenous Tegavivint. As to conditions: 50 mg/kg biw tail-vein injection. The format is in vivo, C57BL/6 wild-type mice. As to the method: In a pilot study, Tegavivint at 50 mg/kg was administered biw (twice a week) via tail-vein injection to C57BL/6 wild-type mice. Bleomycin was administered to the mice intratracheally on day 0 to induce pulmonary fibrosis, and Tegavivint or the vehicle (5% dextrose in water) was administered on days 6, 10, 14, 18 and 21. The purpose of this experiment was to evaluate the effect of systemically-administered Tegavivint on bleomycin-induced pulmonary fibrosis in vivo.

The test system of data set [6] is CTNNB1, EGR1, NRG1 and WISP1 mRNA levels. Description: TaqMan gene expression analyses in DD180, PF180 and CT38 cells. The format is cell-based, human. As to the method:
as §1
Gene expression analyses were assessed in triplicate on a Real-Time PCR ABI Prism 7500. Total RNA samples were derived from syngeneic DD and PF cells cultured from the explant tissues from one patient with Dupuytren's disease (DD180 and PF 180) and 1 patient with no history of Dupuytren's disease (CT38) as a normal allogeneic control. RNA quality was assessed on an Agilent 2100 Bioanalyzer and 2 μg of high quality total RNA was reverse transcribed into cDNA first strand using the High-Capacity cDNA Archive Kit (Applied Biosystems) in accordance with the manufacturer's instructions. TaqMan gene expression assays were used to measure CTNNB1, EGR1, NRG1 and WISP1 mRNA levels after 48 hrs of treatment in cells cultured on type-1 collagen coated 6 well trays. The ΔΔCT method was used after confirmation of parallel PCR amplification efficiencies of target and housekeeping genes PCR reactions were carried out under the following conditions: Initial denaturation at 95° C. for 5 min followed by cycles of denaturation (95° C. for 15 sec), primer annealing (60° C. for 1 min) and transcript extension ([…]) for 40 cycles.

Where [7] appears, read: Topical Tegavivint alone (no bleomycin).
Where [8] appears, read: Tegavivint alone (no bleomycin).
Where [9] appears, read: ≤25 pM, 48 hrs, DD180, PF180, CT38 cells.

Consider Tegavivint, for which, in data set [1] (Tegavivint after bleomycin, compared to bleomycin only), the pulmonary compliance result is on record as “showed a trend towards increased compliance”. Besides, the soluble collagen content entry in data set [1] (Tegavivint after bleomycin, compared with bleomycin-only) was “significantly decreased the collagen level”. Besides, in data set [1] (setting [7]), the pulmonary compliance entry was “caused an increase in compliance” and the soluble collagen content result is listed as “showed a slight increase in collagen”. The effects on contractility entry in data set [2] is on record as “did not identify any consistent effects”. For the same substance, in data set [3], the “interaction with TBL1” value is reported as “interact with TBL1”. Further, in data set [4], the “apoptosis and growth inhibition” value was “undergo apoptosis and growth inhibition”. Also, in data set [5] (Tegavivint after bleomycin), the pulmonary compliance entry is “partially restored” and the “total soluble collagen content in lung tissue (Sircol assay)” value is listed as “completely restored the collagen level to the same as vehicle-only controls”. Further, in data set [5] (setting [8]), the pulmonary compliance entry is “no effect” and the “total soluble collagen content in lung tissue (Sircol assay)” value was “no effect”. In data set [6] (cells treated with ≥25 pM), the “effects on the expression of genes that associate with nuclear β-catenin” value is “No discernible effects”. In addition, the “effects on gene expression” value in data set [6] (≤25 pM) is on record as “did not identify any consistent effects”. In addition, in data set [6] (setting [9]), the CTNNB1 expression result is “no evidence of a compensatory increase”, the EGR1 expression levels result was “did not see any evidence of BC-2059-induced changes”, the NRG1 expression levels entry is given as “did not see any evidence of BC-2059-induced changes” and the WISP1 expression levels result is reported as “did not see any evidence of BC-2059-induced changes”.
